How the values were obtained:
[1] = biological target: Delta-type opioid receptor (Homo sapiens, UniProt P41143); experiment: Displacement of [125I]IOXY from human delta opioid receptor expressed in CHO cells coexpressing human recombinant DOR after 2 hrs by liquid scintillation counting; format: cell-based
[2] = biological target: T1, Kappa-type opioid receptor (Homo sapiens, UniProt P41145); settings: CHO
Description: Antagonist activity at human kappa opioid receptor expressed in CHO cells coexpressing human recombinant KOP after 3 hrs by [35S]GTPgammaS binding assay

Mu-type opioid receptor [3] = biological target: T2, Mu-type opioid receptor (Homo sapiens, UniProt P35372); settings: CHO
Description: Antagonist activity at human mu opioid receptor expressed in CHO cells coexpressing human recombinant MOR after 3 hrs by [35S]GTPgammaS binding assay

Mu-type opioid receptor [4] = biological target: T2, Mu-type opioid receptor; experiment: biochemical; format: cell-based, CHO
[5] = biological target: T1, Kappa-type opioid receptor; experiment: Displacement of [125I]IOXY from human kappa opioid receptor expressed in CHO cells coexpressing human recombinant KOP after 2 hrs by liquid scintillation counting; format: cell-based

Sequence of Delta-type opioid receptor (P41143 whole entry): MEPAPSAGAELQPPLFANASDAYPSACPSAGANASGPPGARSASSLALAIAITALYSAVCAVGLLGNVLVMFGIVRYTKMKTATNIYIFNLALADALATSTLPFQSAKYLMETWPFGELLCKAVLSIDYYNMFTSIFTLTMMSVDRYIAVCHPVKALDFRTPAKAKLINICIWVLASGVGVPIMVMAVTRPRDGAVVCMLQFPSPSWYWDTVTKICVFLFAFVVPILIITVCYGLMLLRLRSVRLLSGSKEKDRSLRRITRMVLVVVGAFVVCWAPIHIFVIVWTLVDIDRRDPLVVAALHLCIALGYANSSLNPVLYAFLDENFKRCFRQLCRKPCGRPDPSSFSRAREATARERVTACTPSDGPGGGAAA
T2 sequence (P35372 whole entry): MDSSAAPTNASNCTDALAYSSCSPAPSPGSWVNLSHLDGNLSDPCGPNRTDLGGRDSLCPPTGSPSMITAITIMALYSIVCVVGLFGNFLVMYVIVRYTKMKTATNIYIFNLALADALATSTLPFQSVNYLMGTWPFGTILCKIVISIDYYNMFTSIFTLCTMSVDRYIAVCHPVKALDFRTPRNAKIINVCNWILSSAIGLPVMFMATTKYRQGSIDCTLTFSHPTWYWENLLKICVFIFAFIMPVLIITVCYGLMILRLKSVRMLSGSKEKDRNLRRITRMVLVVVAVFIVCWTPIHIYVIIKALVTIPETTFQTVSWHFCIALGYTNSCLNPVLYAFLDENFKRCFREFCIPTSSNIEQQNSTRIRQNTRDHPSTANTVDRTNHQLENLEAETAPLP
T1 sequence (P41145 whole entry): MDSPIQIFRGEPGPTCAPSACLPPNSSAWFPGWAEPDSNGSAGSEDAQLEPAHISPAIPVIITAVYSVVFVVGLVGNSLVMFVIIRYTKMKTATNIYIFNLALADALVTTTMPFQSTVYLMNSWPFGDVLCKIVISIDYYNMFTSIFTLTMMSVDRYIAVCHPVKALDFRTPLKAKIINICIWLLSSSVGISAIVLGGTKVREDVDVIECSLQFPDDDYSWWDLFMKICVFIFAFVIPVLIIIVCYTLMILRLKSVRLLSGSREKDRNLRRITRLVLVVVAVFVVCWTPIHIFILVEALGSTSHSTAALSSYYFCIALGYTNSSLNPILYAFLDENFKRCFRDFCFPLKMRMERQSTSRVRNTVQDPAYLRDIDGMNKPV

Row | SMILES | Ki [1] [nM] | Ke [2] [nM] | Ke (Mu-type opioid receptor [3]) [nM] | Ki (Mu-type opioid receptor [4]) [nM] | Ki [5] [nM] | Ki ([1]; cho) [nM] | Ki (Mu-type opioid receptor [4]; cho) [nM] | Ki ([5]; cho) [nM]
1 | Oc1ccc2c(c1)[C@@]13CCN(CCc4ccccc4)[C@@H](CC[C@H]1O2)C3 | > 5000 | 103 | 227 | 352 | 102 |  |  | 
2 | Oc1cccc2c1O[C@H]1CC[C@@H]3C[C@]21CCN3CCc1ccccc1 |  | 761 | 328 |  |  | > 5000 | 384 | 367
3 | CN1CC[C@]23C[C@H]1CC[C@H]2Oc1c(O)cccc13 (racemic) | > 4900 |  |  | > 2800 | 7500 |  |  | 
4 | Oc1cccc2c1O[C@@H]1CC[C@H]3C[C@@]21CCN3CCc1ccccc1 | > 5000 | 22 | 31 | 49 | 42 |  |  | 
5 | CN1CC[C@]23C[C@H]1CC[C@H]2Oc1ccc(O)cc13 (racemic) | > 4900 |  |  | > 2800 | > 8600 |  |  | 
6 | Oc1ccc2c(c1)[C@]13CCN(CCc4ccccc4)[C@H](CC[C@H]1O2)C3 (racemic) | > 4900 | 46 | 23 | 486 | 98 |  |  | 
7 | Oc1ccc2c(c1)[C@]13CCN(CCc4ccccc4)[C@H](CC[C@@H]1O2)C3 | > 5000 | 100 | 47 | 250 | 199 |  |  | 
8 | Oc1cccc2c1O[C@@H]1CC[C@@H]3C[C@]21CCN3CCc1ccccc1 (racemic) | > 4900 | 163 | 274 | 167 | 171 |  |  | 

Reference: ChEMBL document CHEMBL1806350, “Probes for narcotic receptor mediated phenomena. 43. Synthesis of the ortho-a and para-a, and improved synthesis and optical resolution of the ortho-b and para-b oxide-bridged phenylmorphans: compounds with moderate to low opioid-receptor affinity” (Bioorg Med Chem, 2011)
